Target: Dipeptidyl peptidase 8/9 (Homo sapiens) (UniProt Q6V1X1+Q86TI2)
Experiment: Inhibition of full length recombinant human DPP-8/9 expressed in HEK293 cells at 10 uM incubated for 1 hr
Assay type: cell-based
Conditions: not given

Sequence of Dipeptidyl peptidase 8/9 (Homo sapiens) (Q6V1X1 whole entry, looked up): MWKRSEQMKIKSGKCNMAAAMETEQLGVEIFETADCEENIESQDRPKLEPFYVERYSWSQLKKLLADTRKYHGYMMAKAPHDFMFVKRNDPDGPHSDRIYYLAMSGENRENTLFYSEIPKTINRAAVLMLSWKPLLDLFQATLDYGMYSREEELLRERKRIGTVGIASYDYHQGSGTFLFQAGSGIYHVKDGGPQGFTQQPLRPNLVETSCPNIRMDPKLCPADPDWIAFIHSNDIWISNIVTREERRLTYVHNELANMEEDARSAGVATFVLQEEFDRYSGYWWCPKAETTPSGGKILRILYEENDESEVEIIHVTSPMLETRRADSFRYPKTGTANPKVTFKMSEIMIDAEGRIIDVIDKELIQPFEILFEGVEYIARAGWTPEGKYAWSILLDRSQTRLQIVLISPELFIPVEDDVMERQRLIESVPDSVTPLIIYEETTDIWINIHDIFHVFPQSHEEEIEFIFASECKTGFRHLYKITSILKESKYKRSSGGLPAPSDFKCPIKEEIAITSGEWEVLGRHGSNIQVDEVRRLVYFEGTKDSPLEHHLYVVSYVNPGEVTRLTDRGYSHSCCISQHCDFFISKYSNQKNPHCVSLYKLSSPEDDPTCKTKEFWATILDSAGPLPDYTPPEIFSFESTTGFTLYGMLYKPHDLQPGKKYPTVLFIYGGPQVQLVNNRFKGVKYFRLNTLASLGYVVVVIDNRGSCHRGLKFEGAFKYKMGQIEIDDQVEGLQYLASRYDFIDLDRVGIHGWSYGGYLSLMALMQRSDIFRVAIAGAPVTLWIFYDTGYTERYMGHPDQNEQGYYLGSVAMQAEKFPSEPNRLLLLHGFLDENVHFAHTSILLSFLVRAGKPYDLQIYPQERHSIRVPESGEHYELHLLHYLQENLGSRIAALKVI
Sequence of Dipeptidyl peptidase 8/9 (Homo sapiens) (Q86TI2 whole entry, looked up): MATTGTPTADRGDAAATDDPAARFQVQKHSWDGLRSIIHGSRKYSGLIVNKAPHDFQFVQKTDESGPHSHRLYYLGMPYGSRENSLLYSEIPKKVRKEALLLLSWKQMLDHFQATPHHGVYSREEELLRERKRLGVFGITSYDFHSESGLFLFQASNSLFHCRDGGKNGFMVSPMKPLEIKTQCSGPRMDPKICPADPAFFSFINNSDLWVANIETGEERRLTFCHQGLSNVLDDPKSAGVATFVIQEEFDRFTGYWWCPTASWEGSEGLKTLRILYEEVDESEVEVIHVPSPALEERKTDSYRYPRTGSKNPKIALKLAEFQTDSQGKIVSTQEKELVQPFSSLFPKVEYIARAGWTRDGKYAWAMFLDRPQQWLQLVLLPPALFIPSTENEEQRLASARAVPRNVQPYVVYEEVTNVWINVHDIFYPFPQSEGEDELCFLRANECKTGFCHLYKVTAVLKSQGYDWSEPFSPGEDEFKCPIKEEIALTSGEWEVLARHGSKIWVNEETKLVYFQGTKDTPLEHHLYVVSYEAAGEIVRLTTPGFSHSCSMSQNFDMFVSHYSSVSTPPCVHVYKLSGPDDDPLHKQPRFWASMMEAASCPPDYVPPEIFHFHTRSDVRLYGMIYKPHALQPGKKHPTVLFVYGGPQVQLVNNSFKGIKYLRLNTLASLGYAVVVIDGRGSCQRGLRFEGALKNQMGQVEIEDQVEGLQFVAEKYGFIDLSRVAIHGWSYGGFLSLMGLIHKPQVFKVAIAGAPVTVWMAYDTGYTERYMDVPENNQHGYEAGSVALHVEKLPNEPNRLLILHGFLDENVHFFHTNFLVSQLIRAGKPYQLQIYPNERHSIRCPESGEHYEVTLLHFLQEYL

| Structure (SMILES) | inhibition |
| --- | --- |
| CC#CCn1c(N2CCC[C@@H](N)C2)nc2c1c(=O)n(CCCN1CCC(C(=O)OCC)CC1)c(=O)n2C | 12.5% |
| CC#CCn1c(N2CCC[C@@H](N)C2)nc2c1c(=O)n(CCCC1CCN(C(=O)OC(C)C)CC1)c(=O)n2C | 36.8% |
| CC#CCn1c(N2CCC[C@@H](N)C2)nc2c1c(=O)n(CC1CCN(C(=O)OC(C)C)CC1)c(=O)n2C | 0% |
| CC#CCn1c(N2CCC[C@@H](N)C2)nc2c1c(=O)n(CCCN1CCC(C(=O)N(C)C)CC1)c(=O)n2C | 38.1% |
| CC#CCn1c(N2CCCNCC2)nc2c1c(=O)n(CCCN1CCC(C(=O)OC(C)C)CC1)c(=O)n2C | 22.5% |
| CC#CCn1c(N2CCC[C@@H](N)C2)nc2c1c(=O)n(CCCCC1CCN(C(=O)OC(C)C)CC1)c(=O)n2C | 31.6% |
| CC#CCn1c(N2CCC[C@@H](N)C2)nc2c1c(=O)n(CCCN1CCC(C(=O)Oc3ccccc3)CC1)c(=O)n2C | 26.3% |
| CC#CCn1c(N2CCC[C@@H](N)C2)nc2c1c(=O)n(CCCN1CCC(C(=O)OC(C)C)CC1)c(=O)n2C | 16% |
| CC#CCn1c(N2CCC[C@@H](N)C2)nc2c1c(=O)n(CCCN1CCC(C(=O)Nc3ccccc3)CC1)c(=O)n2C | 36.8% |
| CC#CCn1c(N2CCC[C@@H](N)C2)nc2c1c(=O)n(CCC1CCN(C(=O)OC(C)C)CC1)c(=O)n2C | 10.5% |
| CC#CCn1c(N2CCC[C@@H](N)C2)nc2c1c(=O)n(CCCN1CCC(C(=O)OC)CC1)c(=O)n2C | 21.1% |

Target: T1, Glucose-dependent insulinotropic receptor (Homo sapiens, UniProt Q8TDV5)
T1 sequence (Q8TDV5 whole entry): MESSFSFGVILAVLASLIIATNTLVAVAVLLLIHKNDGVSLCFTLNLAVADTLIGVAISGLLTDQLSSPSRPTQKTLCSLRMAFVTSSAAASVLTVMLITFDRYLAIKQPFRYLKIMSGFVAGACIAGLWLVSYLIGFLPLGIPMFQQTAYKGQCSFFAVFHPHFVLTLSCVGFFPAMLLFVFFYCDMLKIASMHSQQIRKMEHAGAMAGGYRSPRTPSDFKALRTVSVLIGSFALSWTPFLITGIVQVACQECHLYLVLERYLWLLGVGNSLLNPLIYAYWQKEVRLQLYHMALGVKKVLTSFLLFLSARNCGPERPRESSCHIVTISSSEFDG
Experiment: Agonist activity at CREB-LBD and GAL4-DBD fused human GPR119 expressed in HEK293 cells by luciferase reporter gene assay
Assay type: functional, cell-based
Conditions: not given

| Structure (SMILES) | EC50 |
| --- | --- |
| CC#CCn1c(N2CCC[C@@H](N)C2)nc2c1c(=O)n(CC1CCN(C(=O)OC(C)C)CC1)c(=O)n2C | 1900 nM |
| CC(C)c1noc(C2CCN(c3ncnc(Nc4ccc(S(C)(=O)=O)cc4F)c3[N+](=O)[O-])CC2)n1 | 700 nM |
| CC#CCn1c(N2CCC[C@@H](N)C2)nc2c1c(=O)n(CCCN1CCC(C(=O)Nc3ccccc3)CC1)c(=O)n2C | 950 nM |

Tested on: not listed separately
Experiment: Metabolic stability in mouse liver microsomes at 1 umol/L after 30 mins by LC/MS/MS method
Assay type: ADME
Conditions: 0.5 h, 1 µM

| Structure (SMILES) | Stability |
| --- | --- |
| CC#CCn1c(N2CCC[C@@H](N)C2)nc2c1c(=O)n(CCCN1CCC(C(=O)Nc3ccccc3)CC1)c(=O)n2C | Stable |

Target: T2, Glucose-dependent insulinotropic receptor (Homo sapiens) (UniProt Q8TDV5)
T2 sequence (whole entry): T1 sequence (Q8TDV5 whole entry)
Experiment: Agonist activity at CREB-LBD and GAL4-DBD fused human GPR119 expressed in HEK293 cells at 1 uM by luciferase reporter gene assay relative to AR231453
Assay type: functional, cell-based
Conditions: not given

| Structure (SMILES) | Activity |
| --- | --- |
| CC#CCn1c(N2CCC[C@@H](N)C2)nc2c1c(=O)n(CCCN1CCC(C(=O)OCC)CC1)c(=O)n2C | 51.4% |
| CC#CCn1c(N2CCC[C@@H](N)C2)nc2c1c(=O)n(CCCC1CCN(C(=O)OC(C)C)CC1)c(=O)n2C | 66.1% |
| CC#CCn1c(N2CCC[C@@H](N)C2)nc2c1c(=O)n(CCN1CCC(C(=O)OC(C)C)CC1)c(=O)n2C | 54.2% |
| CC#CCn1c(N2CC[C@@H](N)C2)nc2c1c(=O)n(CCCN1CCC(C(=O)OC(C)C)CC1)c(=O)n2C | 63.9% |
| CC#CCn1c(N2CCC[C@@H](N)C2)nc2c1c(=O)n(CCCN1CCC(C(=O)OCCC)CC1)c(=O)n2C | 31.9% |
| CC#CCn1c(N2CCC[C@@H](N)C2)nc2c1c(=O)n(CC1CCN(C(=O)OC(C)C)CC1)c(=O)n2C | 79.3% |
| CC#CCn1c(N2CCC[C@@H](N)C2)nc2c1c(=O)n(CCCN1CCC(C(=O)Nc3ccc(F)cc3)CC1)c(=O)n2C | 16.2% |
| CC#CCn1c(N2CCC[C@@H](N)C2)nc2c1c(=O)n(CCCCN1CCC(C(=O)OC(C)C)CC1)c(=O)n2C | 9.8% |
| CC#CCn1c(N2CCC[C@@H](N)C2)nc2c1c(=O)n(CCCN1CCC(C(=O)N(C)C)CC1)c(=O)n2C | 61.3% |
| CC#CCn1c(N2CCC[C@@H](N)C2)nc2c1c(=O)n(CCCN1CCC(C(=O)Nc3ccc(OC)cc3)CC1)c(=O)n2C | 44.4% |
| CC#CCn1c(N2CCC[C@@H](N)C2)nc2c1c(=O)n(CCCN1CCC(C(=O)OC3CCCC3)CC1)c(=O)n2C | 42.7% |
| CC#CCn1c(N2CCCNCC2)nc2c1c(=O)n(CCCN1CCC(C(=O)OC(C)C)CC1)c(=O)n2C | 69.6% |
| CC#CCn1c(N2CCC[C@@H](N)C2)nc2c1c(=O)n(CCCCC1CCN(C(=O)OC(C)C)CC1)c(=O)n2C | 61.8% |
| CC#CCn1c(N2CCC(N)CC2)nc2c1c(=O)n(CCCN1CCC(C(=O)OC(C)C)CC1)c(=O)n2C | 14.5% |
| CC#CCn1c(N2CCC[C@@H](N)C2)nc2c1c(=O)n(CCCN1CCC(C(=O)Nc3ccc(C#N)cc3)CC1)c(=O)n2C | 68.8% |
| CC#CCn1c(N2CCC[C@@H](N)C2)nc2c1c(=O)n(CCCN1CCC(C(=O)Oc3ccccc3)CC1)c(=O)n2C | 70.7% |
| CC#CCn1c(N2CCC[C@@H](N)C2)nc2c1c(=O)n(CCCN1CCC(C(=O)Nc3ccc(Cl)cc3)CC1)c(=O)n2C | 18.9% |
| CC#CCn1c(N2CCC[C@@H](N)C2)nc2c1c(=O)n(CCCN1CCC(C(=O)Nc3ccc(Br)cc3)CC1)c(=O)n2C | 27.9% |
| CC#CCn1c(N2CCC[C@@H](N)C2)nc2c1c(=O)n(CCCN1CCC(C(=O)OC(C)C)CC1)c(=O)n2C | 60.4% |
| CC#CCn1c(N2CC(N)C2)nc2c1c(=O)n(CCCN1CCC(C(=O)OC(C)C)CC1)c(=O)n2C | 36.5% |
| CC#CCn1c(N2CCC[C@@H](N)C2)nc2c1c(=O)n(CCCN1CCC(C(=O)Nc3ccccc3)CC1)c(=O)n2C | 81.5% |
| CC#CCn1c(N2CCC[C@@H](N)C2)nc2c1c(=O)n(CCCN1CCC(C(=O)OC3CCC3)CC1)c(=O)n2C | 54.8% |
| CC#CCn1c(N2CCC[C@@H](N)C2)nc2c1c(=O)n(CCCN1CCC(C(=O)OC3CCCCC3)CC1)c(=O)n2C | 29.9% |
| CC#CCn1c(N2CCC[C@@H](N)C2)nc2c1c(=O)n(CCC1CCN(C(=O)OC(C)C)CC1)c(=O)n2C | 69.8% |
| CC#CCn1c(N2CCC[C@@H](N)C2)nc2c1c(=O)n(CCCN1CCC(C(=O)Nc3ccc(C)cc3)CC1)c(=O)n2C | 26.2% |
| CC#CCn1c(N2CCC[C@@H](N)C2)nc2c1c(=O)n(CCCN1CCC(C(=O)OC)CC1)c(=O)n2C | 74.5% |

Source: ChEMBL document CHEMBL3872227, “Discovery of novel xanthine compounds targeting DPP-IV and GPR119 as anti-diabetic agents” (Eur J Med Chem, 2016)
